From ChEMBL document CHEMBL4699491, “Identification of TNO155, an Allosteric SHP2 Inhibitor for the Treatment of Cancer” (J Med Chem, 2020) come the findings set out here.

SMILES strings stand for the structures. pIC50: −log10 of the molar value. In brackets after ≈: the same amount, converted by molar mass. Bounds are passed on as bounds.

In data set [1] the test system is MIA PaCa-2. Nature of the data set: cells. Conditions: Homo sapiens.
Description: Antiproliferative activity against human MIA PaCa-2 cells
Data set [2] in a line: physchem. The note with it: octanol/water.
Description: Distribution coefficient, logD of the compound
A short description of data set [3]: physchem. Conditions: aqueous, pH 6.8.
Description: Aqueous solubility of the compound at pH 6.8
In data set [4] the target is Voltage-gated inwardly rectifying potassium channel KCNH2 (Homo sapiens, UniProt Q12809).
Sequence of Voltage-gated inwardly rectifying potassium channel KCNH2 (Q12809 whole entry): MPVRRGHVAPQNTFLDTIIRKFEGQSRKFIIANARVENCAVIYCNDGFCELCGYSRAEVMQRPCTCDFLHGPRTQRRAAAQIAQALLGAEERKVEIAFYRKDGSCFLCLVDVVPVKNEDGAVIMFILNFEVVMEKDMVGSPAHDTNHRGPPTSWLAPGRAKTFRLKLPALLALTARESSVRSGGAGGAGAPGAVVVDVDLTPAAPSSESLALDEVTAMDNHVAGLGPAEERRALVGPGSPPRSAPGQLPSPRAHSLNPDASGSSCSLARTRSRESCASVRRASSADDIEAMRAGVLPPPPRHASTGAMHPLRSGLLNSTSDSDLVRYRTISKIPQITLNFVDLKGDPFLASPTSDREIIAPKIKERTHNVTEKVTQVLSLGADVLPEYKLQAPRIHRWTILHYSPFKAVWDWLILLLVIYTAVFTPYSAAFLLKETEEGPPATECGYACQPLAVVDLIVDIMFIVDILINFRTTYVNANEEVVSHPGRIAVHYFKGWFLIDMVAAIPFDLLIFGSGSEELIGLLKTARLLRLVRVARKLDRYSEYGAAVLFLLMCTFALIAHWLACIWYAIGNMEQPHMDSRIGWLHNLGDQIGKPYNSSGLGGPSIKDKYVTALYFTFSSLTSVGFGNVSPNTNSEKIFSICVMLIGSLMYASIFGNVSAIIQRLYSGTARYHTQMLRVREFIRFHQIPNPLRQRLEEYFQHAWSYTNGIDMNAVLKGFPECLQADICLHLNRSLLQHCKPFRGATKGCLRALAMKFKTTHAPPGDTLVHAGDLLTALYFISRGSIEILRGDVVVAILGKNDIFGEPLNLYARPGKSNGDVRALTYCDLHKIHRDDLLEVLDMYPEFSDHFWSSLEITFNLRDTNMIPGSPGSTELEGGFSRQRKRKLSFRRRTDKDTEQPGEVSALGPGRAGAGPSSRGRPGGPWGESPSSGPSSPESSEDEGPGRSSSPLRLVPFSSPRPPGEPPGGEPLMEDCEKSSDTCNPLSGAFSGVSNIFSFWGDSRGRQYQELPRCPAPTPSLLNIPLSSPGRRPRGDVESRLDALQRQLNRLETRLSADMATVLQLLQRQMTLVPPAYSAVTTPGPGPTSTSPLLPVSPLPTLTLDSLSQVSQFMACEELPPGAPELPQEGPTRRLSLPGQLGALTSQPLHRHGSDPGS
Description: Inhibition of human ERG by Q-patch assay
The test system of data set [5] is KYSE-520 cell line. Put plainly: Antiproliferative activity against human KYSE-520 cells. It counts as functional, cell-based.
For data set [6], the target named is T1, Tyrosine-protein phosphatase non-receptor type 11 (Homo sapiens, UniProt Q06124).
T1 sequence (Q06124 whole entry): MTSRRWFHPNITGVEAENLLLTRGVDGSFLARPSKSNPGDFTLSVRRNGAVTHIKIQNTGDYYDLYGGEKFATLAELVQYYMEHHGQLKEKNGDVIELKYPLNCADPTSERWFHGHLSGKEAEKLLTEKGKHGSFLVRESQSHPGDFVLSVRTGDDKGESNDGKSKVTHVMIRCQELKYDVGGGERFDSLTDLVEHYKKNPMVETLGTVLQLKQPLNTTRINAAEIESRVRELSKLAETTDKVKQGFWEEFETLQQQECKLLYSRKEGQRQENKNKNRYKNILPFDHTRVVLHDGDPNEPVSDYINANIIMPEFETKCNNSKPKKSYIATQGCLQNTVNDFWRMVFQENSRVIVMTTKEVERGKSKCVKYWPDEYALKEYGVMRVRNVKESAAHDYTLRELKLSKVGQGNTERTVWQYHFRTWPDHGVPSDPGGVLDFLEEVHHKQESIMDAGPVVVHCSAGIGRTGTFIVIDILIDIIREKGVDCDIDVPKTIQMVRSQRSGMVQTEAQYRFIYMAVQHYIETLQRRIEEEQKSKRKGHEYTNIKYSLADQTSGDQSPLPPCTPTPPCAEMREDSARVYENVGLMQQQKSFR
Description: Allosteric inhibition of human SHP2 in human KYSE-520 cells assessed as reduction in ERK1/2 phosphorylation by fluorescence based assay

Data set [7] in a line: physchem. The note with it: octanol/water. This is another data set of the same source.
Description: Lipophilicity, logP of the compound
Data set [8] can be described thus: Toxicity in mouse 3T3 cells under irradiation by NRU phototoxicity test. The format is cell-based.
The target in data set [9] is T2, Tyrosine-protein phosphatase non-receptor type 11 (Homo sapiens) (UniProt Q06124).
T2 sequence (whole entry): T1 sequence (Q06124 whole entry)
The note with it: filed as negative allosteric modulator.

For data set [10] the following is noted: octanol/water.
Description: Lipophilicity, logP of the compound
In data set [11] the target is T1, Tyrosine-protein phosphatase non-receptor type 11. Put plainly: Allosteric inhibition of 6x-histidine tagged human SHP2 (Met1-L525 residues) expressed in Escherichia coli BL21 Star (DE3) using IRS1_pY1172(dPEG8)[…] incubated for 30 mins by fluorescence based DIFMUP assay.
Data set [12] has as its target Serine/threonine-protein kinase B-raf (Homo sapiens, UniProt P15056). Put plainly: Inhibition of RAF in human A-375 cells assessed as reduction in p-ERK levels. The format is cell-based.
For data set [13], the system named is A-375. Nature of the data set: Antiproliferative activity against human A-375 cells. It counts as functional, cell-based.

Usually pIC50 stands for the negative decadic logarithm of the IC50, by convention in mol/L. For orientation: logD means the decadic logarithm of the distribution of all forms, ionised or not, between an organic phase and buffer at a given pH. Usually solubility stands for the concentration that dissolves in the medium under given conditions. Higher therefore signals much dissolved substance. Broadly, the logP is the decadic logarithm of the partition coefficient of the neutral form, usually between octanol and water. The low end stands for a more hydrophilic compound, the high end for a more lipophilic compound. For orientation: ΔTm means the shift of the melting midpoint relative to a reference.

Sequence of Serine/threonine-protein kinase B-raf (P15056 whole entry): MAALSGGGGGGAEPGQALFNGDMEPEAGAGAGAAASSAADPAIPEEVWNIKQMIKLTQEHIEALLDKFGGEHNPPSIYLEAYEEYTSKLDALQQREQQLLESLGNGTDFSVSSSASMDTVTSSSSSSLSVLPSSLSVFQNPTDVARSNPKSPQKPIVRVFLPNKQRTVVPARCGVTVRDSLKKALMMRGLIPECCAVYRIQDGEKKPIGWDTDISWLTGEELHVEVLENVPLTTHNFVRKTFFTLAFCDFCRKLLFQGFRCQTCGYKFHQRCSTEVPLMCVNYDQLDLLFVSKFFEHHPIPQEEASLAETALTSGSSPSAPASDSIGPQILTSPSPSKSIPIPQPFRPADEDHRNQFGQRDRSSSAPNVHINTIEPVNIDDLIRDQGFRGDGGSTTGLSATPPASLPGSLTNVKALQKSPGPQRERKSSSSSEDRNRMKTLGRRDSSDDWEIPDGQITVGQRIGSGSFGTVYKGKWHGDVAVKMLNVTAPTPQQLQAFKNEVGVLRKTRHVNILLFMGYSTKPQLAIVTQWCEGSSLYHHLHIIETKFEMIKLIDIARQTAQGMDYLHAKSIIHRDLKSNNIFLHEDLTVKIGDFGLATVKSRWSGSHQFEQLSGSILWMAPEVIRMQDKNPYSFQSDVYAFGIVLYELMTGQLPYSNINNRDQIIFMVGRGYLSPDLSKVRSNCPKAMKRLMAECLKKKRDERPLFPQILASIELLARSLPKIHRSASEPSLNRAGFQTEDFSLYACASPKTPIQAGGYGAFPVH

As to `C=C(F)C(=O)N1CCN(c2nc(OC[C@@H]3CCCN3C)nc3c2CCN(c2cccc4cccc(Cl)c24)C3)C[C@@H]1CC#N` [ADAGRASIB], in data set [1], the pIC50 is 7.00.
The compound `CC1(CN)CCN(c2cnc(Sc3ccnc(N)c3Cl)c(N)n2)CC1` returned a logD in data set [2] of -0.9. In data set [3], this compound displayed a solubility of 437 µM (≈ 166 µg/mL). Also, the pIC50 in [4] was under 4.52; in [5] (Homo sapiens, KYSE-520), 6.07; in [6], 6.91. The logP in [7] stood at 2.
The compound `Nc1nccc(Sc2cnc(N3CCC4(CCC[C@H]4N)CC3)cn2)c1Cl` had a pIC50 in [5] (Homo sapiens, KYSE-520) of 7.06.
Compound `CC1(N)CCN(c2cnc(-c3cccc(Cl)c3Cl)c(N)n2)CC1` came in with a logD in [2] of 0.92. The same compound gave a solubility in [3] of 290 µM (≈ 102 µg/mL). For the same compound, the pIC50 in [5] (Homo sapiens, KYSE-520) was 5.60; in data set [8], 5.35. Moreover, the ΔTm in data set [9] is 7.5 °C. In addition, the logP in data set [10] was 2.6.
In data set [6], `CC1(CN)CCN(c2cnc(Sc3cccc(N)c3Cl)c(N)n2)CC1` gave a pIC50 of 7.05.
Consider `CC1(CN)CCN(c2cnc(Sc3cccc(Cl)c3Cl)c(N)n2)CC1`, for which the logD in data set [2] was 2.5. The compound also registered a solubility in [3] of 109 µM (≈ 43.4 µg/mL). Besides, the pIC50 in [4] is 5.62; in data set [11], 7.77; in data set [5] (kyse-520) it was 5.57; in [6], 7.06. In [7], the logP was 4.3.
For the compound `Cc1ccc(NC(=O)c2ccnc(C(F)(F)F)c2)cc1-c1cc(OCCO)nc(N2CCOCC2)c1` [NAPORAFENIB], the pIC50 in data set [12] is 7.11; in data set [13] it was 6.62.
The compound `Nc1nc(N2CCC3(CC2)COC[C@H]3N)cnc1Sc1ccnc(N)c1Cl` displayed a logD in [2] of 0.2. Further, the solubility in data set [3] turned out to be 787 µM (≈ 321 µg/mL). In addition, the pIC50 is under 4.60 in data set [4]; 6.18 in data set [5] (Homo sapiens, KYSE-520); 7.00 in [6]. Also, the logP in data set [7] was 1.1.
`CC1(CN)CCN(c2cnc(-c3cccc(Cl)c3Cl)c(N)n2)CC1` gave a pIC50 in [5] (Homo sapiens, KYSE-520) of 5.26.
Regarding `CC1(N)CCN(c2cnc(Sc3ccccc3Cl)c(N)n2)CC1`, the results for the pIC50 in data set [5] (kyse-520) and in data set [6] were 5.09 and 6.60, respectively.
